In this assay the target is T1, 15-hydroxyprostaglandin dehydrogenase [NAD(+)] (Homo sapiens, UniProt P15428).
T1 sequence (P15428 whole entry): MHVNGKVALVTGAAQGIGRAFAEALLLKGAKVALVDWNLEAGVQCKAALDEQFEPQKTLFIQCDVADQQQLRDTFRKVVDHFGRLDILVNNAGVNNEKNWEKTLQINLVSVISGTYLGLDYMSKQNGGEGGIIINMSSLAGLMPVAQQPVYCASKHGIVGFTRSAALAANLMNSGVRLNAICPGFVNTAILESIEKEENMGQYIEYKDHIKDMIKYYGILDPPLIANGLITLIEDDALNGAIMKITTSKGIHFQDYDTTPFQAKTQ
As to the kind of experiment: In Vitro Assay: Each compound for inhibiting enzymatic activity of recombinant 15-PGDH in an in vitro assay.

Regarding `CCCC[S+]([O-])c1sc2nc(-c3nccs3)cc(-c3cccc(C(=O)O)c3)c2c1N` (configuration not stated), the 50% inhibitory concentration (IC50) is 20.2 nM.

For `CCCC[S+]([O-])c1sc2nc(-c3nccs3)cc(-c3cccc(C(=O)NCCN(C)C)c3)c2c1N` (configuration not stated), the IC50 turned out to be 19.3 nM. For the molecule `CCCC[S+]([O-])c1sc2nc(-c3nccs3)cc(-c3cccc(C(=O)N4CCN(C)CC4)c3)c2c1N` (configuration not stated), the IC50 was 36.4 nM. As for `CCCC[S+]([O-])c1sc2nc(-c3nccs3)cc(-c3ccc(CN(C)C)cc3)c2c1N` (configuration not stated), the IC50 worked out at 5.7 nM.

For `CCCC[S+]([O-])c1sc2nc(-c3nccs3)cc(-c3ccc(OCC(=O)OC)cc3)c2c1N` (configuration not stated), the IC50 is 8.53 nM.

With `C=CCNC(=O)c1cccc(-c2cc(-c3nccs3)nc3sc([S+]([O-])CCCC)c(N)c23)c1` (configuration not stated), the half-inhibitory concentration (IC50) is 2.5 nM.

`CCCC[S+]([O-])c1sc2nc(-c3nccs3)cc(-c3ccc(OCC(=O)O)cc3)c2c1N` (configuration not stated): the IC50 was 2.71 nM.

One may read the IC50 as the concentration that gives 50% inhibition.

These data come from ChEMBL document CHEMBL5726493, “Compositions and methods of modulating short-chain dehydrogenase activity” (2017).
